# From patent US10745382B2 (BRISTOL-MYERS SQUIBB COMPANY, priority 2015, dated 2020)
# Target: T1, PD-1/PD-L1 (Homo sapiens, UniProt Q9NZQ7)
# T1 construct: made in house; host or cells: HEK293T
# Experiment: PD-1/PD-L1 Homogenous Time-Resolved Fluorescence (HTRF) binding assay
# Conditions: PD-L1-His 10 nM, PD-1-Ig 20 nM; value given as range class; read-out: Range or IC50
# In short: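 Binding was measured by HTRF in dPBS with 0.1% BSA and 0.05% Tween-20. Detection used europium cryptate anti-Ig (1 nM final) and APC anti-His (20 nM final) added over the binding reaction.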
# T1 sequence (Q9NZQ7 with tags, fused parts or gaps): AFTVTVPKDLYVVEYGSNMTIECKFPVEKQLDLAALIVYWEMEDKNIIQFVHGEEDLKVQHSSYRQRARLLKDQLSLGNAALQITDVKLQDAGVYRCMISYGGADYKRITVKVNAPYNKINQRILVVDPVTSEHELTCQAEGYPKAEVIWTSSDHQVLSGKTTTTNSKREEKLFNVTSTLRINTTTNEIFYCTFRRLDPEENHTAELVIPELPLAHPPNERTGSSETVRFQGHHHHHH
row,IC50 [nM],Structure (SMILES)
1,0.21 to 10,"Cc1c(COc2cc(OCc3cncc(C#N)c3)c(CN3CCCCC3(C)C(=O)O)cc2Cl)cccc1-c1cccc(OCCCN2CC[C@@H](O)C2)c1C (stereo partly drawn) [Example 3068, 1-(5-chloro-2-((5-cyanopyridin-3-yl)methoxy)-4-((3′-(3-((R)-3-hydroxypyrrolidin-1-yl)propoxy)-2,2′-dimethyl-[1,1′-biphenyl]-3-yl)methoxy)benzyl)-2-methylpiperidine-2-carboxylic Acid]"
2,0.21 to 10,"CNC(=O)c1cccc(-c2cccc(COc3cc(OCc4cncc(C#N)c4)c(CNC(CO)CO)cc3Cl)c2C)c1C [Example 4015, 3′-((2-chloro-5-((5-cyanopyridin-3-yl)methoxy)-4-(((1,3-dihydroxypropan-2-yl)amino)methyl)phenoxy)methyl)-N,2,2′-trimethyl-[1,1′-biphenyl]-3-carboxamide]"
3,0.21 to 10,"Cc1ccc(COc2cc(OCc3cccc(-c4cccc(OCCCN5CC[C@@H](O)C5)c4C)c3C)c(Cl)cc2CN2CCCC[C@H]2C(=O)O)cc1C [Example 4508, (S)-1-(5-chloro-2-((3,4-dimethylbenzyl)oxy)-4-((3′-(3-((R)-3-hydroxypyrrolidin-1-yl)propoxy)-2,2′-dimethyl-[1,1′-biphenyl]-3-yl)methoxy)benzyl)piperidine-2-carboxylic Acid]"
4,0.21 to 10,"Cc1c(COc2cc(OCc3cncc(S(C)(=O)=O)c3)c(CN[C@](C)(CO)C(=O)O)cc2Cl)cccc1-c1cccc(OCCCN2CC[C@@H](O)C2)c1C [Example 1026, (R)-2-((5-chloro-4-((3′-(3-((R)-3-hydroxypyrrolidin-1-yl)propoxy)-2,2′-dimethyl-[1,1′-biphenyl]-3-yl)methoxy)-2-((5-(methylsulfonyl)pyridin-3-yl)methoxy)benzyl)amino)-3-hydroxy-2-methylpropanoic Acid]"
5,10 to 100,"Cc1c(COc2cc(OCc3cncc(C#N)c3)c(CNC(C)(CO)CO)cc2Cl)cccc1-c1cccc(C(=O)N2CCOCC2)c1C [Example 4053, 5-((4-chloro-2-(((1,3-dihydroxy-2-methylpropan-2-yl)amino)methyl)-5-((2,2′-dimethyl-3′-(morpholine-4-carbonyl)-[1,1′-biphenyl]-3-yl)methoxy)phenoxy)methyl)nicotinonitrile]"
6,2010 to 10000,"Cc1c(COc2cc(OCc3cncc(C#N)c3)c(CN[C@](C)(CO)C(=O)O)cc2Cl)cccc1-c1cc(C#Cc2ccccc2)cc(OCCCN2CC[C@@H](O)C2)c1 [Example 3045, (R)-2-((5-chloro-2-((5-cyanopyridin-3-yl)methoxy)-4-((3′-(3-((R)-3-hydroxypyrrolidin-1-yl)propoxy)-2-methyl-5′-(phenylethynyl)-[1,1′-biphenyl]-3-yl)methoxy)benzyl)amino)-3-hydroxy-2-methylpropanoic Acid]"
7,0.21 to 10,"CC(=O)N[C@@H]1CCN(CCCOc2cccc(-c3cccc(COc4cc(OCc5cncc(C#N)c5)c(CN5CC[C@@H](NC(C)=O)C5)cc4Cl)c3C)c2C)C1 [Example 2267, N-((3R)-1-(3-(3′-((4-(((R)-3-acetamidopyrrolidin-1-yl)methyl)-2-chloro-5-((5-cyanopyridin-3-yl)methoxy)phenoxy)methyl)-2,2′-dimethylbiphenyl-3-yloxy)propyl)pyrrolidin-3-yl)acetamide]"
8,10 to 100,"Cc1c(COc2cc(OCc3ccc(F)c(F)c3)c(CNC(C)(CO)CO)cc2Cl)cccc1-c1cccc(OCCCN2CC[C@@H](O)C2)c1C [Example 4510, (R)-2-((5-chloro-2-((3,4-difluorobenzyl)oxy)-4-((3′-(3-(3-hydroxypyrrolidin-1-yl)propoxy)-2,2′-dimethyl-[1,1′-biphenyl]-3-yl)methoxy)benzyl)amino)-2-methylpropane-1,3-diol]"
9,0.21 to 10,"Cc1c(COCCN2CC[C@@H](O)C2)cccc1-c1cccc(COc2cc(OCc3cncc(C#N)c3)c(CN(C)C(CO)CO)cc2Cl)c1C [Example 4127, (R)-5-((4-chloro-2-(((1,3-dihydroxypropan-2-yl)(methyl)amino)methyl)-5-((3′-((2-(3-hydroxypyrrolidin-1-yl)ethoxy)methyl)-2,2′-dimethyl-[1,1′-biphenyl]-3-yl)methoxy)phenoxy)methyl)nicotinonitrile]"
10,0.21 to 10,"Cc1c(COc2cc(OCc3cncc(C#N)c3)c(CNC(C)(CO)CO)cc2Cl)cccc1-c1cccc(OCCCN2CCC[C@H](CO)C2)c1C [Example 2295, (S)-5-((4-chloro-2-(((1,3-dihydroxy-2-methylpropan-2-yl)amino)methyl)-5-((3′-(3-(3-(hydroxymethyl)piperidin-1-yl)propoxy)-2,2′-dimethyl-[1,1′-biphenyl]-3-yl)methoxy)phenoxy)methyl)nicotinonitrile]"
11,0.21 to 10,"Cc1c(COc2cc(OCc3cncc(S(C)(=O)=O)c3)c(CN3CCCC[C@H]3C(=O)O)cc2Cl)cccc1-c1cccc(OCCCN2CCC(O)(CC(=O)O)C2)c1C (mixture of isomers) [Example 1516, (2S)-1-(4-((3′-(3-(3-(carboxymethyl)-3-hydroxypyrrolidin-1-yl)propoxy)-2,2′-dimethyl-[1,1′-biphenyl]-3-yl)methoxy)-5-chloro-2-((5-(methylsulfonyl)pyridin-3-yl)methoxy)benzyl)piperidine-2-carboxylic acid]"
12,2010 to 10000,"Cc1cccc(C)c1COc1cc(OCc2cccc(-c3cccc(OCCCN4CC[C@@H](O)C4)c3C)c2C)c(Cl)cc1CN1CCCC[C@H]1C(=O)O [Example 4516, (S)-1-(5-chloro-2-((2,6-dimethylbenzyl)oxy)-4-((3′-(3-((R)-3-hydroxypyrrolidin-1-yl)propoxy)-2,2′-dimethyl-[1,1′-biphenyl]-3-yl)methoxy)benzyl)piperidine-2-carboxylic Acid]"
13,0.21 to 10,"Cc1c(COc2cc(OCc3cncc(C#N)c3)c(CN(C)C3(C(=O)O)CC3)cc2Cl)cccc1-c1cccc(OCCCN2CC[C@@H](O)C2)c1C [Example 4134, (R)-1-((5-chloro-2-((5-cyanopyridin-3-yl)methoxy)-4-((3′-(3-(3-hydroxypyrrolidin-1-yl)propoxy)-2,2′-dimethyl-[1,1′-biphenyl]-3-yl)methoxy)benzyl)(methyl)amino)cyclopropane-1-carboxylic Acid]"
14,0.21 to 10,"CNC(=O)C1CCN(CCCOc2cccc(-c3cccc(COc4cc(OCc5cncc(C#N)c5)c(CN[C@](C)(CO)C(=O)O)cc4Cl)c3C)c2Cl)CC1 [Example 1076, (R)-2-((5-chloro-4-((2′-chloro-2-methyl-3′-(3-(4-(methylcarbamoyl)piperidin-1-yl)propoxy)-[1,1′-biphenyl]-3-yl)methoxy)-2-((5-cyanopyridin-3-yl)methoxy)benzyl)amino)-3-hydroxy-2-methylpropanoic Acid]"
15,100 to 2000,"COc1cc(OCc2cccc(-c3cccc(OCCCN4CC[C@@H](O)C4)c3C)c2C)c(Cl)cc1C=O [Example 3032, (R)-5-chloro-4-((3′-(3-(3-hydroxypyrrolidin-1-yl)propoxy)-2,2′-dimethyl-[1,1′-biphenyl]-3-yl)methoxy)-2-methoxybenzaldehyde]"
16,0.21 to 10,"Cc1c(COc2cc(OCc3cncc(C#N)c3)c(CN3CCCC[C@H]3C(=O)O)cc2Cl)cccc1-c1cccc(OCCCN2CCN(CCO)CC2)c1C [Example 2211, (2S)-1-(5-chloro-2-((5-cyanopyridin-3-yl)methoxy)-4-((3′-(3-(4-(2-hydroxyethyl)piperazin-1-yl)propoxy)-2,2′-dimethylbiphenyl-3-yl)methoxy)benzyl)piperidine-2-carboxylic Acid]"
17,0.21 to 10,"COc1ccccc1N1CCN(CCCOc2cccc(-c3cccc(COc4cc(OCc5cncc(C#N)c5)c(CN5CCCC[C@H]5C(=O)O)cc4Cl)c3C)c2C)CC1 [Example 2219, (2S)-1-(5-chloro-2-((5-cyanopyridin-3-yl)methoxy)-4-((3′-(3-(4-(2-methoxyphenyl)piperazin-1-yl)propoxy)-2,2′-dimethylbiphenyl-3-yl)methoxy)benzyl)piperidine-2-carboxylic Acid]"
18,100 to 2000,"Cc1c(COc2cc(OCc3cncc(C#N)c3)c(CN3CCCC[C@H]3C(=O)O)cc2Cl)cccc1-c1cccc(C(=O)N2CCCC2)c1C [Example 4037, (S)-1-(5-chloro-2-((5-cyanopyridin-3-yl)methoxy)-4-((2,2′-dimethyl-3′-(pyrrolidine-1-carbonyl)-[1,1′-biphenyl]-3-yl)methoxy)benzyl)piperidine-2-carboxylic Acid]"
19,0.21 to 10,"Cc1c(OCCCN2CC[C@H](O)C2)cccc1-c1cccc(COc2cc(OCc3cncc(C#N)c3)c(CN3CCCC[C@H]3C(=O)O)cc2Cl)c1Cl [Example 2304, (S)-1-(5-chloro-4-((2-chloro-3′-(3-((S)-3-hydroxypyrrolidin-1-yl)propoxy)-2′-methyl-[1,1′-biphenyl]-3-yl)methoxy)-2-((5-cyanopyridin-3-yl)methoxy)benzyl)piperidine-2-carboxylic Acid]"
20,0.21 to 10,"CCOC(=O)C1(O)CCN(CCCOc2cccc(-c3cccc(COc4cc(OCc5cncc(C#N)c5)c(CN5CCCC[C@H]5C(=O)O)cc4Cl)c3C)c2Cl)CC1 [Example 1100, (S)-1-(5-chloro-4-((2′-chloro-3′-(3-(4-(ethoxycarbonyl)-4-hydroxypiperidin-1-yl)propoxy)-2-methyl-[1,1′-biphenyl]-3-yl)methoxy)-2-((5-cyanopyridin-3-yl)methoxy)benzyl)piperidine-2-carboxylic Acid]"
21,0.21 to 10,"Cc1c(COc2cc(OCc3cncc(C#N)c3)c(CN3CCCC[C@H]3C(=O)O)cc2Cl)cccc1-c1cccc(OC[C@@H]2CCCN3CCCC[C@H]23)c1C [Example 1043, (S)-1-(5-chloro-2-((5-cyanopyridin-3-yl)methoxy)-4-((2,2′-dimethyl-3′-(((1R,9aR)-octahydro-1H-quinolizin-1-yl)methoxy)-[1,1′-biphenyl]-3-yl)methoxy)benzyl)piperidine-2-carboxylic Acid]"
